# Results reported in PubChem BioAssay (NCI).
#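 All cell lines were grown in 96-well plates and treated with compound for 48 hours. TGI denotes the concentration required for complete inhibition of growth.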
# Key:
# Assay in all cases: NCI-60 cell line screen, 48 h
# A549 NSCLC = tested on: A549 NSCLC
# EKVX NSCLC = tested on: EKVX NSCLC
# RPMI-8226 leukemia = tested on: RPMI-8226 leukemia
# CAKI-1 renal = tested on: CAKI-1 renal
# OVCAR-8 ovarian = tested on: OVCAR-8 ovarian
# BT-549 breast = tested on: BT-549 breast
# RXF 393 renal = tested on: RXF 393 renal
# ACHN renal = tested on: ACHN renal
# IGROV1 ovarian = tested on: IGROV1 ovarian
# SNB-19 CNS = tested on: SNB-19 CNS
# UACC-62 melanoma = tested on: UACC-62 melanoma
# SK-MEL-28 melanoma = tested on: SK-MEL-28 melanoma
# K-562 leukemia = tested on: K-562 leukemia
# MDA-N = tested on: MDA-N
# NCI-H226 lung = tested on: NCI-H226 lung
# SF-268 CNS = tested on: SF-268 CNS
# MOLT-4 leukemia = tested on: MOLT-4 leukemia
# MALME-3M melanoma = tested on: MALME-3M melanoma
# MDA-MB-435 = tested on: MDA-MB-435
# SNB-75 CNS = tested on: SNB-75 CNS
# OVCAR-4 ovarian = tested on: OVCAR-4 ovarian
# T-47D breast = tested on: T-47D breast
# SN12C renal = tested on: SN12C renal
# OVCAR-3 ovarian = tested on: OVCAR-3 ovarian
# SK-MEL-5 melanoma = tested on: SK-MEL-5 melanoma
# HCT-15 colon = tested on: HCT-15 colon
# SR leukemia = tested on: SR leukemia
# NCI-H23 lung = tested on: NCI-H23 lung
# UO-31 renal = tested on: UO-31 renal
# HL-60(TB) leukemia = tested on: HL-60(TB) leukemia
# COLO 205 colon = tested on: COLO 205 colon
# HCT-116 colon = tested on: HCT-116 colon
# SF-539 CNS = tested on: SF-539 CNS
# HT29 colon = tested on: HT29 colon
# M14 melanoma = tested on: M14 melanoma
# MDA-MB-231 breast = tested on: MDA-MB-231 breast
# HS 578T breast = tested on: HS 578T breast
# MCF7 breast = tested on: MCF7 breast
# SK-MEL-2 melanoma = tested on: SK-MEL-2 melanoma
# LOX IMVI melanoma = tested on: LOX IMVI melanoma
# PC-3 prostate = tested on: PC-3 prostate
# OVCAR-5 ovarian = tested on: OVCAR-5 ovarian
# 786-0 renal = tested on: 786-0 renal
# A498 renal = tested on: A498 renal
# CCRF-CEM leukemia = tested on: CCRF-CEM leukemia
# HOP-92 NSCLC = tested on: HOP-92 NSCLC
# NCI-H522 lung = tested on: NCI-H522 lung
# DU-145 prostate = tested on: DU-145 prostate
# NCI/ADR-RES ovarian = tested on: NCI/ADR-RES ovarian
# SW-620 colon = tested on: SW-620 colon
# U251 CNS = tested on: U251 CNS
# NCI-H460 lung = tested on: NCI-H460 lung
# SF-295 CNS = tested on: SF-295 CNS
# KM12 colon = tested on: KM12 colon
# UACC-257 melanoma = tested on: UACC-257 melanoma
# TK-10 renal = tested on: TK-10 renal
# HOP-62 NSCLC = tested on: HOP-62 NSCLC
# SK-OV-3 ovarian = tested on: SK-OV-3 ovarian
smiles,measurement,setting,value
CCOc1cc(C2CC(c3ccc(NS(=O)(=O)c4cc([N+](=O)[O-])ccc4C)cc3)=NN2)ccc1O (stereo unspecified),TGI,A549 NSCLC,> 100 µM
same,TGI,EKVX NSCLC,53.3 µM
same,TGI,RPMI-8226 leukemia,> 100 µM
same,TGI,CAKI-1 renal,> 100 µM
same,TGI,OVCAR-8 ovarian,> 100 µM
same,TGI,BT-549 breast,51.6 µM
same,TGI,RXF 393 renal,40.4 µM
same,TGI,ACHN renal,76.7 µM
same,TGI,IGROV1 ovarian,> 100 µM
same,TGI,SNB-19 CNS,> 100 µM
same,TGI,UACC-62 melanoma,30.3 µM
same,TGI,SK-MEL-28 melanoma,> 100 µM
same,TGI,K-562 leukemia,99 µM
same,TGI,MDA-N,> 100 µM
same,TGI,NCI-H226 lung,> 100 µM
same,TGI,SF-268 CNS,> 100 µM
same,TGI,MOLT-4 leukemia,48.8 µM
same,TGI,MALME-3M melanoma,75.3 µM
same,TGI,MDA-MB-435,85.9 µM
same,TGI,SNB-75 CNS,84 µM
same,TGI,OVCAR-4 ovarian,71.4 µM
same,TGI,T-47D breast,82.9 µM
same,TGI,SN12C renal,65.2 µM
same,TGI,OVCAR-3 ovarian,37.3 µM
same,TGI,SK-MEL-5 melanoma,37.8 µM
same,TGI,HCT-15 colon,67.3 µM
same,TGI,SR leukemia,53.6 µM
same,TGI,NCI-H23 lung,80.7 µM
same,TGI,UO-31 renal,84 µM
same,TGI,HL-60(TB) leukemia,50.5 µM
same,TGI,COLO 205 colon,43 µM
same,TGI,HCT-116 colon,50.6 µM
same,TGI,SF-539 CNS,> 100 µM
same,TGI,HT29 colon,72.2 µM
same,TGI,M14 melanoma,43.8 µM
same,TGI,MDA-MB-231 breast,89.2 µM
same,TGI,HS 578T breast,> 100 µM
same,TGI,MCF7 breast,49.6 µM
same,TGI,SK-MEL-2 melanoma,49.9 µM
same,TGI,LOX IMVI melanoma,53 µM
same,TGI,PC-3 prostate,> 100 µM
same,TGI,OVCAR-5 ovarian,> 100 µM
same,TGI,786-0 renal,67.8 µM
same,TGI,A498 renal,70.7 µM
same,TGI,CCRF-CEM leukemia,> 100 µM
same,TGI,HOP-92 NSCLC,> 100 µM
same,TGI,NCI-H522 lung,> 100 µM
same,TGI,DU-145 prostate,> 100 µM
same,TGI,NCI/ADR-RES ovarian,71.3 µM
same,TGI,SW-620 colon,> 100 µM
CC(C)Oc1cc(O)c2c(c1)OCC=C2CCC(=O)O,TGI,A549 NSCLC,> 100 µM
same,TGI,U251 CNS,> 100 µM
same,TGI,EKVX NSCLC,91.2 µM
same,TGI,RPMI-8226 leukemia,69.3 µM
same,TGI,CAKI-1 renal,> 100 µM
same,TGI,OVCAR-8 ovarian,> 100 µM
same,TGI,BT-549 breast,> 100 µM
same,TGI,NCI-H460 lung,> 100 µM
same,TGI,RXF 393 renal,> 100 µM
same,TGI,ACHN renal,> 100 µM
same,TGI,IGROV1 ovarian,> 100 µM
same,TGI,SNB-19 CNS,> 100 µM
same,TGI,UACC-62 melanoma,> 100 µM
same,TGI,SK-MEL-28 melanoma,> 100 µM
same,TGI,K-562 leukemia,> 100 µM
same,TGI,SF-295 CNS,> 100 µM
same,TGI,MDA-N,54.7 µM
same,TGI,NCI-H226 lung,69.8 µM
same,TGI,SF-268 CNS,> 100 µM
same,TGI,MOLT-4 leukemia,91 µM
same,TGI,MDA-MB-435,66 µM
same,TGI,SNB-75 CNS,> 100 µM
same,TGI,KM12 colon,> 100 µM
same,TGI,OVCAR-4 ovarian,> 100 µM
same,TGI,T-47D breast,> 100 µM
same,TGI,SN12C renal,69.3 µM
same,TGI,OVCAR-3 ovarian,> 100 µM
same,TGI,SK-MEL-5 melanoma,36.5 µM
same,TGI,HCT-15 colon,66.2 µM
same,TGI,UACC-257 melanoma,61.4 µM
same,TGI,TK-10 renal,76.8 µM
same,TGI,SR leukemia,> 100 µM
same,TGI,NCI-H23 lung,> 100 µM
same,TGI,UO-31 renal,89.1 µM
same,TGI,HL-60(TB) leukemia,42 µM
same,TGI,COLO 205 colon,31.2 µM
same,TGI,HCT-116 colon,66.5 µM
same,TGI,HOP-62 NSCLC,> 100 µM
same,TGI,HT29 colon,53.1 µM
same,TGI,M14 melanoma,98.6 µM
same,TGI,MDA-MB-231 breast,> 100 µM
same,TGI,HS 578T breast,> 100 µM
same,TGI,MCF7 breast,40.2 µM
same,TGI,SK-MEL-2 melanoma,> 100 µM
same,TGI,LOX IMVI melanoma,> 100 µM
same,TGI,PC-3 prostate,> 100 µM
same,TGI,OVCAR-5 ovarian,> 100 µM
same,TGI,786-0 renal,> 100 µM
same,TGI,A498 renal,56.6 µM
same,TGI,CCRF-CEM leukemia,43.3 µM
same,TGI,HOP-92 NSCLC,76.6 µM
same,TGI,NCI-H522 lung,59.3 µM
same,TGI,DU-145 prostate,> 100 µM
same,TGI,NCI/ADR-RES ovarian,> 100 µM
same,TGI,SK-OV-3 ovarian,> 100 µM
same,TGI,SW-620 colon,> 100 µM
